By IC50 is commonly meant the concentration needed to halve the response being measured. High values mean weaker potency, low ones greater potency.

This passage reports IC50 results from ChEMBL document CHEMBL1129291, “Tyrosine kinase inhibitors. 8. An unusually steep structure-activity relationship for analogues of 4-(3-bromoanilino)-6,7-dimethoxyquinazoline (PD 153035), a potent inhibitor of the epidermal growth factor receptor” (J Med Chem, 1996).

SMILES strings stand for the structures.

The target of this assay is Epidermal growth factor receptor (Homo sapiens, UniProt P00533). Nature of the assay: Concentration required to inhibit the phosphorylation of a 14-residue fragment of phospholipase C gamma 1 by Epidermal growth factor receptor from A431 cell vesicles.
Sequence of Epidermal growth factor receptor (P00533 whole entry, the tested form may be a part): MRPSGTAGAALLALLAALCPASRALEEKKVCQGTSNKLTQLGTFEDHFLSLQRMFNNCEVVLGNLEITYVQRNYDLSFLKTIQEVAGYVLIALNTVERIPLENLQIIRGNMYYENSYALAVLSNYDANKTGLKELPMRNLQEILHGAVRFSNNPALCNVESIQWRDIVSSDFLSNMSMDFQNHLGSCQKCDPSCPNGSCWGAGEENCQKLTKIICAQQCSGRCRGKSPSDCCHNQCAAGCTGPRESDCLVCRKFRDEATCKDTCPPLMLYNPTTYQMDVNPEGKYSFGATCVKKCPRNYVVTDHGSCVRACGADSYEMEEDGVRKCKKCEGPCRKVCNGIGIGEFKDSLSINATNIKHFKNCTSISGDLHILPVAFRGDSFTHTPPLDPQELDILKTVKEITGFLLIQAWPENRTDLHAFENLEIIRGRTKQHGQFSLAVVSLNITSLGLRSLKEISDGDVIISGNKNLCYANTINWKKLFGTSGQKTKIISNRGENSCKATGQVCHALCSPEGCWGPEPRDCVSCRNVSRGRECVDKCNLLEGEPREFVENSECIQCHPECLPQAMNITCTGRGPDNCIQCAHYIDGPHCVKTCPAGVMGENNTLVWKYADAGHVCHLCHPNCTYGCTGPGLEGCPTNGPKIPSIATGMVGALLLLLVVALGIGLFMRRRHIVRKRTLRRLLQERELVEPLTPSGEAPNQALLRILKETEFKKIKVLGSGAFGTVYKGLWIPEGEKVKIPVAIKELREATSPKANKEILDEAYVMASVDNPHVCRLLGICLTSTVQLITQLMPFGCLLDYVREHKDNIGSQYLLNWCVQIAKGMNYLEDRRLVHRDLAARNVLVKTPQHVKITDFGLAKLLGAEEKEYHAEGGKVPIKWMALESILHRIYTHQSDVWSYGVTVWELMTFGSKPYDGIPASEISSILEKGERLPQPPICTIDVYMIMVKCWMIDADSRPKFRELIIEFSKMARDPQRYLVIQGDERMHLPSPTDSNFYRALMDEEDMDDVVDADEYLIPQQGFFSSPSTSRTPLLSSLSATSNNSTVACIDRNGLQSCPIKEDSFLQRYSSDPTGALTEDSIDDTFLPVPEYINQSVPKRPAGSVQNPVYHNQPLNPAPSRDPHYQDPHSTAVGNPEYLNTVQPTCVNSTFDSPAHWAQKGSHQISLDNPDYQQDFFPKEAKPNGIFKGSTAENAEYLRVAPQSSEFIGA
Regarding `Nc1ccc2c(Nc3cccc(F)c3)ncnc2c1`, the IC50 is 2 nM.
Regarding `CCCCOc1cc2ncnc(Nc3cccc(Br)c3)c2cc1OCCCC`, the IC50 came out at 105 nM.
Take `Fc1cccc(Nc2ncnc3ccccc23)c1`: 56 nM corresponded to half-maximal inhibition (IC50).
As for `COc1cc2nc(N)nc(Nc3cccc(Br)c3)c2cc1OC`, the IC50 came to 463 nM.
With `COc1ccc2c(Nc3ccccc3)ncnc2c1`, inhibition was half-maximal at 120 nM (IC50). Against the preceding compound, the IC50 is about 3.9-fold lower.
Compound `COc1cc2ncnc(Nc3ccccc3)c2cc1OC` came in with a concentration for half-maximal inhibition (IC50) of 29 nM.
On to `COc1cc2c(Nc3cccc(Br)c3)ncnc2c(OC)c1OC`, for which the IC50 is above 10000 nM.
Then `COc1ccc2ncnc(Nc3cccc(Br)c3)c2c1OC`, with 1370 nM; and `Oc1ccc2c(Nc3cccc(Br)c3)ncnc2c1`, with 4.7 nM; and `Nc1cc2ncnc(Nc3cccc(Br)c3)c2cc1[N+](=O)[O-]`, with 53 nM.
To `O=[N+]([O-])c1ccc2ncnc(Nc3cccc(C(F)(F)F)c3)c2c1` belongs above 10000 nM.
`Nc1ccc2ncnc(Nc3cccc(C(F)(F)F)c3)c2c1` gave an IC50 of 574 nM.
To `Nc1cc2c(Nc3cccc(Br)c3)ncnc2cc1Cl` belongs 6.5 nM; to `COc1cc2ncnc(Nc3cccc(I)c3)c2cc1OC`, 0.89 nM.
Then `COc1cc2ncnc(Nc3cccc(C(F)(F)F)c3)c2cc1OC`, with 0.24 nM; and `CNc1cc2ncnc(Nc3cccc(Br)c3)c2cc1[N+](=O)[O-]`, with 68 nM; and `COc1ccc2ncnc(Nc3ccccc3)c2c1`, with 55 nM.
`Nc1ccc2c(Nc3cccc(I)c3)ncnc2c1` gave an IC50 of 0.35 nM.
Turning to `COc1ccc2ncnc(Nc3cccc(Br)c3)c2c1`, half-maximal inhibition (IC50) was put at 30 nM.
Compound `CN(C)c1ccc2ncnc(Nc3cccc(Br)c3)c2c1` gave an IC50 of 84 nM.
To `COc1cc2ncnc(Nc3cccc(Br)c3)c2c(OC)c1OC` belongs 0.67 nM.
Consider `Brc1cccc(Nc2ncnc3cc4c(cc23)OCO4)c1`, for which the IC50 was 15 nM.
For `O=[N+]([O-])c1ccc2c(Nc3cccc(C(F)(F)F)c3)ncnc2c1`, the half-inhibitory concentration (IC50) was above 10000 nM.
Then `COc1cc2ncnc(Nc3cccc(Br)c3)c2cc1[N+](=O)[O-]`, with 15 nM; and `COc1cc2ncnc(Nc3cc(Br)cc(Br)c3)c2cc1OC`, with 113 nM.
The compound `COc1ccc2c(Nc3cccc(Br)c3)ncnc2c1OC` showed a 50% inhibitory concentration (IC50) above 10000 nM.
Then `O=[N+]([O-])c1cc2c(Nc3cccc(Br)c3)ncnc2cc1Cl`, with 25 nM; and `O=[N+]([O-])c1ccc2c(Nc3cccc(I)c3)ncnc2c1`, with 540 nM.
The compound `CCOc1cc2ncnc(Nc3cccc(Br)c3)c2cc1OCC` returned an IC50 of 0.006 nM.
Take `O=[N+]([O-])c1ccc2c(Nc3cccc(Cl)c3)ncnc2c1`: the midpoint of inhibition, the IC50, lay at 810 nM. In other words, the sub-micromolar range.
On to `COc1cc2ncnc(Nc3ccccc3Br)c2cc1OC`, for which the IC50 was determined as 128 nM.
To `COc1cc2ncnc(Nc3ccc(Br)cc3)c2cc1OC` belongs 0.96 nM.
With `COc1cc2ncnc(Nc3cccc(Br)c3)c2cc1N`, the IC50 turned out to be 3.8 nM.
Turning to `CN(C)c1ccc2c(Nc3cccc(Br)c3)ncnc2c1`, half-maximal inhibition (IC50) was put at 11 nM.
To `CC(=O)Nc1cc2ncnc(Nc3cccc(Br)c3)c2cc1[N+](=O)[O-]` belongs 28 nM; to `COc1cc2ncnc(Nc3ccc(Br)c(Br)c3)c2cc1OC`, 0.072 nM.
To `CNc1cc2ncnc(Nc3cccc(Br)c3)c2cc1N` belongs 0.69 nM; to `CCCOc1cc2ncnc(Nc3cccc(Br)c3)c2cc1OCCC`, 0.17 nM; to `CN(C)c1cc2ncnc(Nc3cccc(Br)c3)c2cc1N`, 159 nM.
Compound `CNc1ccc2ncnc(Nc3cccc(Br)c3)c2c1` gave an IC50 of 4 nM.
Then `CN(C)c1cc2ncnc(Nc3cccc(Br)c3)c2cc1[N+](=O)[O-]`, with 2000 nM.
To `CC(=O)Nc1ccc2c(Nc3cccc(Br)c3)ncnc2c1` belongs 40 nM.
For the compound `COc1cc2nc(C)nc(Nc3cccc(Br)c3)c2cc1OC`, the half-inhibitory concentration (IC50) was above 10000 nM.
Compound `Nc1ccc2c(Nc3cccc(Cl)c3)ncnc2c1` registered an IC50 of 0.25 nM.
To `O=[N+]([O-])c1ccc2c(Nc3ccccc3)ncnc2c1` belongs 12000 nM; to `O=[N+]([O-])c1ccc2ncnc(Nc3ccccc3)c2c1`, 5000 nM; to `Nc1ccc2ncnc(Nc3ccccc3)c2c1`, 770 nM.
